Results reported in US11591355B2 (Peloton Therapeutics, Inc., priority 2017, dated 2023).
Like-named read-outs stand apart in the source and are kept apart here.

Molecular target: T1, Human CD73 (Homo sapiens, UniProt P21589)
T1 construct: purchased R&D Systems; host or cells: CHO cells
T1 sequence (P21589 27-549): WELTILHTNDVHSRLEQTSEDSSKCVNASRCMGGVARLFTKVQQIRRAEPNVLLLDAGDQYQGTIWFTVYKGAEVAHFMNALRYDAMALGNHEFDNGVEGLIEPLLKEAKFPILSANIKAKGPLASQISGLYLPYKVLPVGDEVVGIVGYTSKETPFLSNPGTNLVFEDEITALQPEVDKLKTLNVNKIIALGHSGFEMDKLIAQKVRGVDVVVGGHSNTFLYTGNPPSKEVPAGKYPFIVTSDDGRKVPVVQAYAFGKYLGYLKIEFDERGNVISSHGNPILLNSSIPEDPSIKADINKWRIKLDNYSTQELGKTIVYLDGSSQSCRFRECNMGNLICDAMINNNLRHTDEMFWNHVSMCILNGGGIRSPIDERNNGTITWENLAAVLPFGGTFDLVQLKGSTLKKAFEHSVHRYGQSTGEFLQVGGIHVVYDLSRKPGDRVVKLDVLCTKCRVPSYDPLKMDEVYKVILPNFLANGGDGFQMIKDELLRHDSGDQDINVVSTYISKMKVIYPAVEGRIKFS
Assay: CD73 Enzyme Assay
Assay type: biochemical

[1] = 0.25 nM hCD73, 25 μM AMP, kinetic read at 360 nm, read-out: CD73 Enzyme Assay IC50
[2] = read-out: CD73 Enzyme Assay IC50

| IC50 [1] [nM] | Compound | also measured |
| --- | --- | --- |
| 100 to 1000 | O=P(O)(O)COC[C@H]1O[C@@H](n2cnc3c(N4CCCC4c4ccccc4)ncnc32)[C@H](O)[C@@H]1O (stereo partly drawn) [Compound 45, [(2R,3S,4R,5R)-3,4-dihydroxy-5-[6-(2-phenylpyrrolidin-1-yl)-purin-9-yl]tetrahydro-furan-2-yl]methoxy-methylphosphonic acid] | – |
| 100 to 1000 | C[C@H](Nc1ncnc2c1ncn2[C@@H]1O[C@H](COCP(=O)(O)O)[C@@H](O)[C@H]1O)c1cccc(F)c1 [Compound 50, [(2R,3S,4R,5R)-5-[6-[[(1S)-1-(3-fluoro-phenyl)ethyl]amino]-purin-9-yl]-3,4-dihydroxy-tetrahydro-furan-2-yl]methoxy-methylphosphonic acid] | – |
| > 1000 | O=P(O)(O)COC[C@H]1O[C@@H](n2cnc3c(-c4ccccc4F)ncnc32)[C@H](O)[C@@H]1O [Compound 53, [(2R,3S,4R,5R)-5-[6-(2-fluorophenyl)purin-9-yl]-3,4-dihydroxy-tetrahydrofuran-2-yl]methoxymethyl-phosphonic acid] | – |
| > 1000 | NC(=O)c1cccc(CNc2ncnc3c2ncn3[C@@H]2O[C@H](COCP(=O)(O)O)[C@@H](O)[C@H]2O)c1 [Compound 65, [(2R,3S,4R,5R)-5-[6-[(3-carbamoylphenyl)-methylamino]purin-9-yl]-3,4-dihydroxy-tetrahydrofuran-2-yl]-methoxymethylphos-phonic acid] | – |
| > 1000 | CS(=O)(=O)c1cccc(CNc2ncnc3c2ncn3[C@@H]2O[C@H](COCP(=O)(O)O)[C@@H](O)[C@H]2O)c1 [Compound 66] | – |
| 100 to 1000 | CNc1nc(C#N)nc2c1ccn2[C@@H]1O[C@H](COCP(=O)(O)O)[C@@H](O)[C@H]1O [Compound 118, [(2R,3S,4R,5R)-5-[2-cyano-4-(methyl-amino)pyrrolo[2,3-d]-pyrimidin-7-yl]-3,4-dihydroxy-tetrahydro-furan-2-yl]methoxy-methylphosphonic acid] | – |
| > 1000 | CC(C)(C)C(=O)OCOP(=O)(C[S+]([O-])C[C@H]1O[C@@H](n2ccc3c(NC4CCCC4)nc(Cl)nc32)[C@H](O)[C@@H]1O)OCOC(=O)C(C)(C)C (stereo partly drawn) [Compound 166, [[(2S,3S,4R,5R)-5-[2-chloro-4-(cyclopentyl-amino)pyrrolo[2,3-d]-pyrimidin-7-yl]-3,4-dihydroxy-tetrahydro-furan-2-yl]methyl-sulfinylmethyl-(2,2-dimethylpropanoyloxy-methoxy)phosphoryl]-oxymethyl 2,2-dimethylpropanoate] | – |
| 100 to 1000 | N#Cc1nc(NC2CCCC2)c2c(C#N)cn([C@@H]3O[C@H](COCP(=O)(O)O)[C@@H](O)[C@H]3O)c2n1 [Compound 210, [(2R,3S,4R,5R)-5-[2,5-dicyano-4-(cyclopentyl-amino)pyrrolo[2,3-d]-pyrimidin-7-yl]-3,4-dihydroxy-tetrahydro-furan-2-yl]methoxy-methylphosphonic acid] | – |
| > 1000 | CC(C)OC(=O)OCOP(=O)(COC[C@H]1O[C@@H](n2ccc3c(NC4CCCC4)nc(Cl)nc32)[C@H](O)[C@@H]1O)OCOC(=O)OC(C)C [Compound 214, [[(2R,3S,4R,5R)-5-[2-chloro-4-(cyclopentyl-amino)pyrrolo[2,3-d]-pyrimidin-7-yl]-3,4-dihydroxy-tetrahydro-furan-2-yl]methoxy-methyl-(isopropoxy-carbonyloxymethoxy)-phosphoryl]oxymethyl-isopropyl carbonate] | – |

The remaining lines, values behind:

| Compound | IC50 [1] [nM] | also measured |
| --- | --- | --- |
| N#Cc1ncnc2c1ncn2[C@@H]1O[C@H](COCP(=O)(O)O)[C@@H](O)[C@H]1O [Compound 47, [(2R,3S,4R,5R)-5-(6-cyanopurin-9-yl)-3,4-dihydroxy-tetrahydro-furan-2-yl]methoxy-methylphosphonic acid] | > 1000 | – |
| O=P(O)(O)COC[C@H]1O[C@@H](n2cnc3c(O)ncnc32)[C@H](O)[C@@H]1O [Compound 48] | > 1000 | – |
| C[C@H](Nc1ncnc2c1ncn2[C@@H]1O[C@H](COCP(=O)(O)O)[C@@H](O)[C@H]1O)c1ccccc1F [Compound 51, [(2R,3S,4R,5R)-5-[6-[[(1S)-1-(2-fluoro-phenyl)ethyl]amino]-purin-9-yl]-3,4-dihydroxy-tetrahydro-furan-2-yl]methoxy-methylphosphonic acid] | 100 to 1000 | – |
| N#Cc1cccc(CNc2ncnc3c2ncn3[C@@H]2O[C@H](COCP(=O)(O)O)[C@@H](O)[C@H]2O)c1 [Compound 58, [(2R,3S,4R,5R)-5-[6-[(3-cyanophenyl)-methylamino]purin-9-yl]-3,4-dihydroxy-tetrahydrofuran-2-yl]-methoxymethylphos-phonic acid] | > 1000 | – |
| NS(=O)(=O)c1ccc(CNc2ncnc3c2ncn3[C@@H]2O[C@H](COCP(=O)(O)O)[C@@H](O)[C@H]2O)cc1 [Compound 59] | – | IC50 [2]: > 1000 nM |
| NS(=O)(=O)c1cccc(CNc2ncnc3c2ncn3[C@@H]2O[C@H](COCP(=O)(O)O)[C@@H](O)[C@H]2O)c1 [Compound 63] | > 1000 | – |
| O=P(O)(O)COC[C@H]1O[C@@H](n2cnc3c(NCc4cccc(CO)c4)ncnc32)[C@H](O)[C@@H]1O [Compound 64, [(2R,3S,4R,5R)-3,4-dihydroxy-5-[6-[[3-(hydroxymethyl)-phenyl]methylamino]-purin-9-yl]tetrahydro-furan-2-yl]methoxy-methylphosphonic acid] | > 1000 | – |
| O=P(O)(O)CS(=O)(=O)C[C@H]1O[C@@H](n2cnc3c(NCc4ccccc4)ncnc32)[C@H](O)[C@@H]1O [Compound 148] | – | IC50 [2]: > 1000 nM |
| O=P(O)(O)C(SC[C@H]1O[C@@H](n2cnc3c(NCc4ccccc4)ncnc32)[C@H](O)[C@@H]1O)c1ccccc1 (stereo partly drawn) [Compound 149, [[(2S,3S,5R)-5-[6-(benzylamino)purin-9-yl]-3,4-dihydroxy-tetrahydrofuran-2-yl]methylsulfanyl-phenylmethyl]phos-phonic acid] | > 1000 | – |
| O=P(O)(O)C(c1ccccc1)S(=O)(=O)C[C@H]1O[C@@H](n2cnc3c(NCc4ccccc4)ncnc32)[C@H](O)[C@@H]1O (stereo partly drawn) [Compound 150, [[(2S,3S,5R)-5-[6-(benzylamino)purin-9-yl]-3,4-dihydroxy-tetrahydrofuran-2-yl]methylsulfonyl-phenylmethyl]phos-phonic acid] | > 1000 | – |
| O=P(O)(O)CSC[C@H]1O[C@@H](n2cnc3c(NCc4ccccc4)ncnc32)[C@H](O)[C@@H]1O [Compound 151, [(2S,3S,5R)-5-[6-(benzylamino)purin-9-yl]-3,4-dihydroxy-tetrahydrofuran-2-yl]methylsulfanyl-methylphosphonic acid] | > 1000 | – |
| CC(C)(C)C(=O)OCOP(=O)(CS(=O)(=O)C[C@H]1O[C@@H](n2ccc3c(NC4CCCC4)nc(Cl)nc32)[C@H](O)[C@@H]1O)OCOC(=O)C(C)(C)C [Compound 165, (((((((2S,3S,4R,5R)-5-(2-chloro-4-(cyclopentylamino)-7H-pyrrolo[2,3-d]pyrimidin-7-yl)-3,4-dihydroxytetrahydrofuran-2-yl)methyl)sulfonyl)methyl)phosphoryl)bis(oxy))bis(methylene) bis(2,2-dimethylpropanoate)] | 100 to 1000 | – |
| CCOP(=O)(COC[C@H]1O[C@@H](n2ccc3c(NC4CCCC4)nc(Cl)nc32)[C@H](O)[C@@H]1O)OCC [Compound 185] | – | IC50: > 1000 nM |
| CC(C)OC(=O)OCOP(=O)(COC[C@H]1O[C@@H](n2ccc3c(N4CC5CCCC5C4)nc(Cl)nc32)[C@H](O)[C@@H]1O)OCOC(=O)OC(C)C (stereo partly drawn) [Compound 208, [[(2R,3S,4R,5R)-5-[4-(3,3a,4,5,6,6a-hexa-hydro-1H-cyclopenta-[c]pyrrol-2-yl)-2-chloro-pyrrolo[2,3-d]-pyrimidin-7-yl]-3,4-dihydroxy-tetrahydro-furan-2-yl]methoxy-methyl-(isopropoxy-carbonyloxymethoxy)-phosphorl]oxymethyl isopropyl carbonate] | > 1000 | – |
| O=P(COC[C@H]1O[C@@H](n2ccc3c(NC4CCCC4)nc(Cl)nc32)[C@H](O)[C@@H]1O)(Oc1ccccc1)Oc1ccccc1 [Compound 215] | – | IC50: > 1000 nM |
| C[C@@H](Nc1nc(Cl)nc2c1ncn2[C@@H]1O[C@H](COCP(=O)(O)O)[C@@H](O)[C@@]1(C)O)c1ccccc1 [Compound 216, [(2R,3R,4R,5R)-5-[2-chloro-6-[[(1R)-1-phenylethyl]amino]-purin-9-yl]-3,4-dihydroxy-4-methyl-tetrahydrofuran-2-yl]methoxymethyl-phosphonic acid] | > 1000 | – |
| O=P(O)(O)COC[C@H]1O[C@@H](n2ccc3c(N[C@H](CO)c4ccccc4)nc(Cl)nc32)[C@H](O)[C@@H]1O [Compound 217, [(2R,3S,4R,5R)-5-[2-chloro-4-[[(1S)-2-hydroxy-1-phenyl-ethyl]amino]pyrrolo-[2,3-d]pyrimidin-7-yl]-3,4-dihydroxy-tetrahydrofuran-2-yl]methoxymethyl-phosphonic acid] | 100 to 1000 | – |
| CCOC(=O)[C@H](C)NP(=O)(COC[C@H]1O[C@@H](n2ccc3c(NC4CCCC4)nc(Cl)nc32)[C@H](O)[C@@H]1O)N[C@@H](C)C(=O)OCC [Compound 220, ethyl (2S)-2-[[[(2R,3S,4R,5R)-5-[2-chloro-4-(cyclo-pentylamino)pyrrolo-[2,3-d]pyrimidin-7-yl]-3,4-dihydroxy-tetra-hydrofuran-2-yl]-methoxymethyl-[[(1S)-2-ethoxy-1-methyl-2-oxo-ethyl]amino]-phosphoryl]amino]-propanoate] | > 1000 | – |
